Measurements as given in patent US11414374B2, “Crystalline forms of vilanterol trifenatate and processes for their preparation” (Hovione Scientia Limited, priority 2017, dated 2022).
In brackets after ≈: the same amount, converted by molar mass. Entries after “also recorded” stand apart in the source; their conditions may differ.

Key:
Format in all cases: physicochemical
[1] = DSC - differential scanning calorimetry; conditions: for DSC (onset) endo. degradation: endothermic event: degradation; for DSC (onset) endo. melting: endothermic event: melting; for DSC (onset) endo. solvent loss: endothermic event: solvent loss
Procedure: The analysis was carried out using a DSC Q200 TA instruments equipped with a refrigerator cooling system (RCS40) and autosampler. The sample was weighed in an aluminum hermetic pan with pinhole. The analysis was performed heating the sample from 25° C. to 350° C. at 10° C./min.

[2] = TGA / TGA-EGA thermogravimetric analysis with evolved gas analysis; conditions: for EGA: evolved solvent identified; for TGA overall weight loss: overall loss of the named solvent(s)
Procedure: The analysis was carried out using the Mettler Toledo TGA/DSC1. The sample was weighed in an aluminum pan hermetically sealed with an aluminum pierced cover. The analysis was performed heating the sample from 25° C. to 320° C. at 10° C./min. TGA-FTIR coupled with Thermo Nicoled is 10 spectometer. The analysis was carried out using the mettler toledo TGA/DSC1. The sample was weighed in an aluminum pan hermetically sealed with an aluminum pierced cover. The analysis was performed heating the sample from 25° C. to 320° C. at 10° C./min. The evolved gas is compared with ft-ir spectra database for identification.

[3] = Stability test (exposed sample 16 h), form by XRPD; conditions: resulting form
[4] = Stability test (sealed vial 18 h), form by XRPD; conditions: resulting form
[5] = Dynamic vapor sorption (DVS) analysis / hygroscopicity (EP 7.0 classification); conditions: for mass increase by dynamic vapor sorption analysis (hygroscopicity): first sorption cycle, relative to 40% RH; for Change In Mass (%) Desorption / Change In Mass (%) Hysteresis / Change In Mass (%) Sorption: DVS, 25° C.
Procedure: The hygroscopicity value is directly obtained from the sorption row at 80% RH, cycle 1.
Hygroscopicity of a sample of each of new form II and comparative form I was determined using the protocol provided below in conditions of 80% RH and 25° C.
The sample was subjected to DVS measuring using SMS-DVS intrinsic. The kinetic moisture sorption measurement was performed at 25° C. and in a RH % range described in the following: • From 40% RH to 90% RH • Form 90% RH to 0% RH • From 0% RH to 90% RH • From 90% RH to 0% RH
The sample was analyzed by XRPD after the analysis.
The hygroscopicity was calculated using the following equation: % Weight Change=[(W2−W1)/W1]*100 W1: weight of sample at the start of the experiment (25° C. and 40% RH) W2: weight of sample at 25° C. and 80% RH in the first absorption cycle

[6] = Storage stability of exposed powder at 25° C. and 60% RH for seven days, compared by XRPD; conditions: 60% RH and 25° C. for 7 days, exposed powder
Procedure: Approximately 30 mg of exposed powder of comparative form 1 and new forms II and III, respectively, were stored at 25′C and 60% RH for seven days. Each powder was then analyzed by XRPD and its diffraction pattern was compared with that of untreated sample.

[7] = Visual solubility in differing solvents (European Pharmacopeia 6.0 section 5.11)
Procedure: Visual solubility of certain forms (compounds) in differing solvents was assessed according to the procedure described in the European Pharmacopeia 6.0 section 5.11. p. The compound was shaken vigorously for 1 min and placed in a constant temperature device for 15 min at 25.0±0.5° C. If the compound was not completely dissolved, the shaking was repeated for 1 min and the tube placed in a constant temperature device for 15 min. 50 mg of compound was weighed in a stoppered tube, 0.05 mL of the solvent added and the Dissolving Procedure (see above) followed. If the compound was completely dissolved, it is very soluble. If the compound was not completely dissolved, a further 0.45 mL of the solvent was added and the Dissolving Procedure (see above) followed. […] If the compound was still not completely dissolved, still further 1.0 mL of the solvent was added and the Dissolving Procedure (see above) followed. If the compound was completely dissolved, it is soluble. If the compound was still not completely dissolved, another 3.5 mL of the solvent was added and the Dissolving Procedure (see above) followed. […] If the compound was still not completely dissolved, the compound is slightly soluble or very slightly soluble. In this case, and the suspension was heated up to the boiling point (max 80° C.) under stirring to verify the solubility at high temperature. The hot solution was afterwards cooled to room temperature to observe whether the compound precipitates. If the compound at room temperature was completely dissolved, it is soluble at high temperature. [table]

[8] = Micronization in fluid energy jet mill: particle size distribution and XRPD of product
From the text: Vilanterol trifenatate form II is fed to a fluid energy jet mill at 10-100 g/h, operated with N2 at a pressure of 1 to 8 bar for the venturi and a pressure of 1 to 8 bar for the ring.

OCc1cc([C@@H](O)CNCCCCCCOCCOCc2c(Cl)cccc2Cl)ccc1O [form IV, vilanterol trifenatate]
DSC (onset) endo. degradation ([1]; listed as Form 4): endo. 189 °C degradation
DSC (onset) endo. melting ([1]; listed as Form 4): endo. 76 °C melting
EGA ([2]; listed as Form 4): Cyclohexane
TGA overall weight loss ([2]; listed as Form 4): overall loss of 40% w/w/
Stability test (exposed sample 16 h) ([3]; listed as Form 4): Form 2
Stability test (sealed vial 18 h) ([4]; listed as Form 4): Form 12

OCc1cc([C@@H](O)CNCCCCCCOCCOCc2c(Cl)cccc2Cl)ccc1O [form II, vilanterol trifenatate]
hygroscopicity classification according to the European Pharmacopoeia (EP, version 7.0) ([5]; 80% RH and 25° C.): non-hygroscopic; also recorded: not hygroscopic
mass increase by dynamic vapor sorption analysis (hygroscopicity) ([5]; 80% RH and 25° C.): 0.04%
mass increase by dynamic vapor sorption analysis (hygroscopicity) ([5]; 80% RH and 25° C., listed as polymorph II): 0.04%
Change In Mass (%) Desorption ([5]; Cycle 1, target RH 0.0%): −0.03351%
Change In Mass (%) Desorption ([5]; Cycle 1, target RH 10.0%): −0.01706%
Change In Mass (%) Desorption ([5]; Cycle 1, target RH 20.0%): −0.00684%
Change In Mass (%) Desorption ([5]; Cycle 1, target RH 30.0%): 0.00031%
Change In Mass (%) Desorption ([5]; Cycle 1, target RH 40.0%): 0.00692%
Change In Mass (%) Hysteresis ([5]; Cycle 1, target RH 40.0%): 0.00707%
Change In Mass (%) Sorption ([5]; Cycle 1, target RH 40.0%): −0.00015%
Change In Mass (%) Desorption ([5]; Cycle 1, target RH 50.0%): 0.01476%
Change In Mass (%) Hysteresis ([5]; Cycle 1, target RH 50.0%): 0.00868%
Change In Mass (%) Sorption ([5]; Cycle 1, target RH 50.0%): 0.00607%
Change In Mass (%) Desorption ([5]; Cycle 1, target RH 60.0%): 0.02244%
Change In Mass (%) Hysteresis ([5]; Cycle 1, target RH 60.0%): 0.00892%
Change In Mass (%) Sorption ([5]; Cycle 1, target RH 60.0%): 0.01353%
Change In Mass (%) Desorption ([5]; Cycle 1, target RH 70.0%): 0.03051%
Change In Mass (%) Hysteresis ([5]; Cycle 1, target RH 70.0%): 0.00892%
Change In Mass (%) Sorption ([5]; Cycle 1, target RH 70.0%): 0.0216%
Change In Mass (%) Desorption ([5]; Cycle 1, target RH 80.0%): 0.04181%
Change In Mass (%) Hysteresis ([5]; Cycle 1, target RH 80.0%): 0.0043%
Change In Mass (%) Sorption ([5]; Cycle 1, target RH 80.0%): 0.0375%
Change In Mass (%) Desorption ([5]; Cycle 1, target RH 90.0%): 0.05802%
Change In Mass (%) Sorption ([5]; Cycle 1, target RH 90.0%): 0.05802%
Change In Mass (%) Sorption ([5]; Cycle 2, target RH 0.0%): −0.03351%
Change In Mass (%) Sorption ([5]; Cycle 2, target RH 10.0%): −0.0229%
Change In Mass (%) Sorption ([5]; Cycle 2, target RH 20.0%): −0.01545%
Change In Mass (%) Sorption ([5]; Cycle 2, target RH 30.0%): −0.00907%
Change In Mass (%) Sorption ([5]; Cycle 2, target RH 40.0%): −0.00261%
Change In Mass (%) Sorption ([5]; Cycle 2, target RH 50.0%): 0.00277%
Change In Mass (%) Sorption ([5]; Cycle 2, target RH 60.0%): 0.01068%
Change In Mass (%) Sorption ([5]; Cycle 2, target RH 70.0%): 0.01821%
Change In Mass (%) Sorption ([5]; Cycle 2, target RH 80.0%): 0.03189%
Change In Mass (%) Sorption ([5]; Cycle 2, target RH 90.0%): 0.04819%
stability / XRPD pattern after DVS analysis ([5]; XRPD after DVS analysis, compared with untreated sample): showed stability after DVS analysis
modifications in XRPD pattern after storage (structural stability) [6]: No significant modifications in XRPD pattern
solubility at 15 min ([7]; ethanol, 50 °C, organic solvent or mixture, thermodynamic from solid, ethanol at 50° C., read-out: visual solubility in ethanol): 10 to 33 mg/mL (≈ 20.6 to 67.8 mM)
visual solubility in water ([7]; water at 75° C.): insoluble
XRPD of micronized product versus starting material ([8]; after fluid energy jet milling): identical to the one of the starting material
particle size distribution Dv90 after micronization ([8]; fluid energy jet mill, N2): below 10 μm

OCc1cc([C@@H](O)CNCCCCCCOCCOCc2c(Cl)cccc2Cl)ccc1O [form XIII, vilanterol trifenatate]
DSC (onset) endo. degradation ([1]; listed as Form 13): endo. 189 °C
DSC (onset) endo. melting ([1]; listed as Form 13): endo. 105 °C
DSC (onset) exo. recrystallization ([1]; exothermic event: recrystallization): exo. 93 °C
TGA overall weight loss ([2]; listed as Form 13): One loss of 34% w/w
Stability test (exposed sample 16 h) ([3]; listed as Form 13): Form 12
Stability test (sealed vial 18 h) ([4]; listed as Form 13): Form 12 (almost

OCc1cc([C@@H](O)CNCCCCCCOCCOCc2c(Cl)cccc2Cl)ccc1O [form V, vilanterol trifenatate]
DSC (onset) endo. Form 1 melting ([1]; endothermic event: Form 1 melting, listed as Form 5): endo. 134 °C Form 1
DSC (onset) endo. degradation ([1]; listed as Form 5): endo. 188 °C degradation
DSC (onset) endo. solvent loss ([1]; listed as Form 5): endo. 55-100 °C solvent loss
EGA ([2]; listed as Form 5): Methylcyclohexane
Stability test (exposed sample 16 h) ([3]; listed as Form 5): Form 2
Stability test (sealed vial 18 h) ([4]; listed as Form 5): Strong crystanllinity

OCc1cc([C@@H](O)CNCCCCCCOCCOCc2c(Cl)cccc2Cl)ccc1O [form XIV, vilanterol trifenatate]
DSC (onset) endo. solvent loss + melting ([1]; endothermic event: solvent loss + melting (Form 6: + Form 2 melting; Form 14: + Form 3 melting), listed as Form 14): endo. 80 °C solvent
DSC (onset) endo. solvent loss ([1]; listed as Form 14): endo. 58 °C solvent loss
EGA ([2]; listed as Form 14): Methylcyclohexane
TGA overall weight loss ([2]; listed as Form 14): loss of 26% w/w
Stability test (exposed sample 16 h) ([3]; listed as Form 14): Form 3
Stability test (sealed vial 18 h) ([4]; listed as Form 14): Form 3 (almost
